Patent publication US20140243322A1, “BIVALENT BROMODOMAIN LIGANDS, AND METHODS OF USING SAME” (Coferon, Inc., priority 2011, published 2014)

Key:
[1] = molecular target: N-terminal His 6-tagged BRD2 tandem protein; assay: Surface Plasmon Resonance (SPR) off-rate assay; format: binding; conditions: immobilized BRD2 tandem protein; saturating concentrations injected 5 minutes, buffer 20 minutes
Experimental: Surface Plasmon Resonance (SPR) Assay.
Off rates were determined using surface plasmon resonance measurements on a Bio-Rad ProteOn XPR 36 instrument. N-terminal His 6-tagged BRD2 tandem protein was immobilized by capturing on a ProteOn HTG sensor chip and then cross coupled to the surface using standard amine reactive chemistry. Selected bivalent inhibitors were injected on to the chip surface at saturating concentrations for 5 minutes followed by buffer for 20 minutes. The resulting sensorgrams were analyzed using the ProteOn XPR software to determine off-rates. Off rates for selected bivalent inhibitors were >100× slower when binding to the BRD2 tandem protein compared to the monovalent pharmacophores or compared to the bivalents binding to monobromodomain containing protein constructs.

Myc mRNA = assay: Inhibition of Myc expression (Myc mRNA) in MV4-11 cells; format: cell-based; conditions: Homo sapiens, 4 hours of treatment, read-out: EC50 range, Myc mRNA normalized to GAPDH mRNA
From the text: Inhibition of Myc Expression.

MV4-11 cells = assay: Inhibition of MV4-11 cell proliferation (Cell-Titer Glo); format: cell-based; conditions: Homo sapiens, 72 hours of growth, read-out: GI50 range
Experimental: Inhibition of MV4-11 Cell Proliferation.
MV4-11 cells (5000 cells in 50 μl volumes) in growth medium containing 10% FBS and 1% Pen/Strep were plated and grown overnight in 96 well plates and treated the next day with 3-fold dilutions of test compounds or with DMSO vehicle. After 72 hours of growth, 30 ul of Cell-Titer Glo reagent (Promega) was added to the wells and the plates incubated for 30 minutes. Luminescence was measured on a Spectramax M5 plate reader and GI50 values were calculated for each test compound.

| Compound | kd (off rate) [1] | EC50 (Myc mRNA) | GI50 (MV4-11 cells) |
| --- | --- | --- | --- |
| CCNC(=O)C[C@@H]1N=C(c2ccc(Cl)cc2)c2cc(OCCCNC(=O)C[C@@H]3N=C(c4ccc(Cl)cc4)c4cc(OC)ccc4-n4c(C)nnc43)ccc2-n2c(C)nnc21 [BRD-B-02, N-(3-(((4S)-6-(4-chlorophenyl)-4-(2-(ethylamino)-2-oxoethyl)-1-methyl-4H-benzo[f][1,2,4]triazolo[4,3-a][1,4]diazepin-8-yl)oxy)propyl)-2-((4S)-6-(4-chlorophenyl)-8-methoxy-1-methyl-4H-benzo[f][1,2,4]triazolo[4,3-a][1,4]diazepin-4-yl)acetamide] | 0.00011 s⁻¹ | 100 to 30000 nM | 0.1 to 30 nM |
| CCNC(=O)C[C@@H]1N=C(c2ccc(Cl)cc2)c2cc(OCCOCCNC(=O)C[C@@H]3N=C(c4ccc(Cl)cc4)c4cc(OC)ccc4-n4c(C)nnc43)ccc2-n2c(C)nnc21 [BRD-B-03, N-(2-(2-(((4S)-6-(4-chlorophenyl)-4-(2-(ethylamino)-2-oxoethyl)-1-methyl-4H-benzo[f][1,2,4]triazolo[4,3-a][1,4]diazepin-8-yl)oxy)ethoxy)ethyl)-2-((4S)-6-(4-chlorophenyl)-8-methoxy-1-methyl-4H-benzo[f][1,2,4]triazolo[4,3-a][1,4]diazepin-4-yl)acetamide] | 0.00011 s⁻¹ | – | 30 to 100 nM |
| CCNC(=O)C[C@@H]1N=C(c2ccc(Cl)cc2)c2cc(OCCOCCOCCOCCOCCOCCOCCNC(=O)C[C@@H]3N=C(c4ccc(Cl)cc4)c4cc(OC)ccc4-n4c(C)nnc43)ccc2-n2c(C)nnc21 [BRD-B-14, N-(20-(((4S)-6-(4-chlorophenyl)-4-(2-(ethylamino)-2-oxoethyl)-1-methyl-4H-benzo[f][1,2,4]triazolo[4,3-a][1,4]diazepin-8-yl)oxy)-3,6,9,12,15,18-hexaoxaicosyl)-2-((4S)-6-(4-chlorophenyl)-8-methoxy-1-methyl-4H-benzo[f][1,2,4]triazolo[4,3-a][1,4]diazepin-4-yl)acetamide] | 7.5e-05 s⁻¹ | 0.1 to 30 nM | 0.1 to 30 nM |
| CCNC(=O)C[C@@H]1N=C(c2ccc(Cl)cc2)c2cc(OCCOCCOCCOCCOCCOCCOCCOCCNC(=O)C[C@@H]3N=C(c4ccc(Cl)cc4)c4cc(OC)ccc4-n4c(C)nnc43)ccc2-n2c(C)nnc21 [BRD-B-15, N-(23-(((4S)-6-(4-chlorophenyl)-4-(2-(ethylamino)-2-oxoethyl)-1-methyl-4H-benzo[f][1,2,4]triazolo[4,3-a][1,4]diazepin-8-yl)oxy)-3,6,9,12,15,18,21-heptaoxatricosyl)-2-((4S)-6-(4-chlorophenyl)-8-methoxy-1-methyl-4H-benzo[f][1,2,4]triazolo[4,3-a][1,4]diazepin-4-yl)acetamide] | 8.3e-05 s⁻¹ | 100 to 30000 nM | 0.1 to 30 nM |
| CCNC(=O)C[C@@H]1N=C(c2ccc(Cl)cc2)c2cc(OCCOCCOCCOCCOCCOCCOCCOCCOCCNC(=O)C[C@@H]3N=C(c4ccc(Cl)cc4)c4cc(OC)ccc4-n4c(C)nnc43)ccc2-n2c(C)nnc21 [BRD-B-20, N-(26-(((4S)-6-(4-chlorophenyl)-4-(2-(ethylamino)-2-oxoethyl)-1-methyl-4H-benzo[f][1,2,4]triazolo[4,3-a][1,4]diazepin-8-yl)oxy)-3,6,9,12,15,18,21,24-octaoxahexacosyl)-2-((4S)-6-(4-chlorophenyl)-8-methoxy-1-methyl-4H-benzo[f][1,2,4]triazolo[4,3-a][1,4]diazepin-4-yl)acetamide] | – | 0.1 to 30 nM | 0.1 to 30 nM |
| COc1ccc2c(c1)C(c1ccc(Cl)cc1)=N[C@@H](CC(=O)NCCOCCOCCOCCOCCOCCOCCOCCOCCNC(=O)C[C@@H]1N=C(c3ccc(Cl)cc3)c3cc(OC)ccc3-n3c(C)nnc31)c1nnc(C)n1-2 [BRD-B-22, (S)—N,N′-(3,6,9,12,15,18,21,24-octaoxahexacosane-1,26-diyl)bis(2-((4S)-6-(4-chlorophenyl)-8-methoxy-1-methyl-4H-benzo[1,2,4]triazolo[4,3-a][1,4]diazepin-4-yl)acetamide)] | – | 30 to 100 nM | 0.1 to 30 nM |
| COc1ccc2c(c1)C(c1ccc(Cl)cc1)=N[C@@H](CC(=O)NCCOCCOCCOCCOCCOCCOCCOCCOCCOCCNC(=O)C[C@@H]1N=C(c3ccc(Cl)cc3)c3cc(OC)ccc3-n3c(C)nnc31)c1nnc(C)n1-2 [BRD-B-23, (S)—N,N′-(3,6,9,12,15,18,21,24,27-nonaoxanonacosane-1,29-diyl)bis(2-((4S)-6-(4-chlorophenyl)-8-methoxy-1-methyl-4H-benzo[f][1,2,4]triazolo[4,3-a][1,4]diazepin-4-yl)acetamide)] | – | 30 to 100 nM | 0.1 to 30 nM |
